The text below walks through data of patent US7863302B2, “Compounds and methods for modulating FX-receptors” (Eli Lilly and Company, priority 2006, dated 2011).

One assay relates to LDLR−/− mice. In words: LDLR−/− Serum Lipid Modulation. The note with it: 10 mg/kg once daily by oral gavage for seven days, male LDLR−/− mice on western diet. Format: in vivo. On the procedure: LDLR−/− Serum Lipid Modulation
Acquire LDLR−/− mice from Jackson Laboratories (Stock number 002207, Bar Harbor, Me., USA). Acclimate animals for one week prior to study initiation. House mice individually in polycarbonate cages with filter tops, and maintain mice on a 12:12 hour light-dark cycle (lights on at 6:00 AM) at 21° C. Provide deionized water ad libitum and maintain for two weeks on ‘western diet’ TD 98137 Diet (42% fat, 0.15% cholesterol, Harlan Teklad) ad libitum. Optimize groups of five ten-week-old male LDLR−/− mice based on serum triglyceride and cholesterol levels. Dose groups once daily by oral gavage with various doses of the test compound for seven days. At the end of the seven-day dosing period, collect blood by tail clip for clinical chemistry assessment. Measure serum triglycerides, glucose, and total cholesterol using standard clinical chemistry instrumentation and reagents (Roche Diagnostic, Indianapolis, Ind., USA). Asphyxiate mice in a CO2 chamber. Perform cardiac puncture to collect blood samples for serum FPLC analysis. Assay pooled serum samples for lipoprotein cholesterol fraction values (VLDL, LDL, HDL) by separation on a size exclusion column (Superose® 6HR, Pharmacia Biotech AB, Uppsala, Sweden) with in-line determination of cholesterol.

In assay [1] the target is T1, human FXR ligand-binding domain (Homo sapiens, UniProt Q96RI1).
T1 construct: 6-HIS
T1 sequence (Q96RI1 242-472 isoform Q96RI1-2 limits assumed): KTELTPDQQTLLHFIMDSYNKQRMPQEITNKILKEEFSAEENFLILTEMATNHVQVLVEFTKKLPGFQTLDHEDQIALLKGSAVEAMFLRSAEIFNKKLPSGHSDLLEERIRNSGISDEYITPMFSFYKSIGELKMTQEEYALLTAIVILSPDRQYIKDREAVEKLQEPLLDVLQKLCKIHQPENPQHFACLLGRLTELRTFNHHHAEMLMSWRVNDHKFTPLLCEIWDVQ
T1 sequence (Q15788 600-774 partner limits assumed): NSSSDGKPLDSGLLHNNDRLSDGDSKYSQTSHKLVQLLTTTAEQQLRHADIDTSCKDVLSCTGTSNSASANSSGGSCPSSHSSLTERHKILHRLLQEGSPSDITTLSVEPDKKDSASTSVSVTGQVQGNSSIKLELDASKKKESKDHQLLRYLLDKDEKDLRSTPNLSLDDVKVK
The experiment in a line: FXR-SRC-1 Cofactor Recruitment Assay (Alpha Screen). The note with it: SRC-1 FXR interaction, 4 hours at room temperature. Format: biochemical. On the procedure:
FXR-SRC-1 Cofactor Recruitment Assay
Compounds are tested in concentration-response curves by an FXR-SRC-1 Cofactor Recruitment assay using the Alpha (Amplified Luminescent Proximity Homogeneous Assay) Screen technology according to the manufacturer instructions (Perkin Elmer). Briefly, purified 6-HIS-tagged human FXR ligand-binding domain (amino acids 242-472), purified GST-tagged human SRC-1 nuclear receptor-interacting domain (amino acids 220-394), Nickel Chelate donor beads (Perkin Elmer) and Anti-GST antibody acceptor beads (Perkin Elmer) are mixed together and 12 μL per well is aliquoted into 384 well plates. Add compounds in 3 μL per well for a total assay volume of 15 μL and incubate at room temperature in the dark for 4 hours. After incubation, compounds that bind FXR and induce the interaction between the FXR and SRC-1 would bring the two bead types into proximity generating luminescence that is quantified using a Packard Fusion instrument. Calculate EC50 values for each test compound. Compounds of the invention are found to be effective in the SRC-1 FXR interaction assay with EC50 of about 365-3000 nM.

As a reminder, the EC50 is the concentration at which the effect is half-maximal. In the assay on LDLR−/− mice, `Cc1cc(OCc2c(-c3ccccc3OC(F)(F)F)noc2C2CC2)ccc1-c1ccc2c(C(=O)O)cn(C)c2c1` [Example 7, 6-{4-[5-Cyclopropyl-3-(2-trifluoromethoxy-phenyl)-isoxazol-4-ylmethoxy]-2-methyl-phenyl}-1-methyl-1H-indole-3-carboxylic acid] showed a lowers total cholesterol of 63% and a lowers triglycerides of 61%. This molecule showed an EC50 in assay [1] of 1300 nM.
